Literature values, collected in patent publication US20030040459A1, “Cleaning compositions” (Unilever Home & Pesonal Care USA, priority 2001, published 2003).

Conditions: for Water Solubility (g/100 g): at 20° C.

| Water Solubility (grams/100 grams water) (grams of solid to form a saturated solution in 100 grams of deionised water at 20° C.) | SMILES | Water Solubility (g/100 g) |
| --- | --- | --- |
|  | O=BO[O-].[Na+] [Sodium perborate anhydrous] | 3.7 g/100 g |
|  | O=P(O)(O)OP(=O)(O)OP(=O)(O)O [Sodium tripolyphosphate anhydrous] | 15 g/100 g |
| >100 grams/100 grams water | NC(N)=O [Urea] |  |
